According to PMC12157126, “Saturation kinetics and specificity of transporters for L-arginine and asymmetric dimethylarginine (ADMA) at the blood-brain and blood-CSF barriers” (PLOS One, 2025):
Values joined by “and” are separate entries in the source; they are usually repeats but may differ in a detail not shown here. Equal values may be shown once. Read-outs that look alike come from different tables or passages of the source.

How the values were obtained:
[1] = tested on: blood-brain and blood-CSF barriers; experiment: Self-inhibition experiments: [3H]-ADMA uptake with 0.5-500 μM unlabelled ADMA and kinetic constants (Km, Vmax, Kd); type: in vivo, adult male BALB/c mice; design: [3H] ADMA, hippocampus / [3H] ADMA, thalamus: unit not given beside the values
NO production = tested on: NO production; design: method as in PMID 17082183; details: cited from earlier work
CAT-1 = CAT-1 transports ADMA; cited from earlier work
[2] = tested on: blood-brain and blood-CSF barriers; details: male, BALB/c, mouse, in vivo, 10 min
Protocol: (§1) The in situ brain/choroid plexus perfusion method was performed as previously described and will only be briefly detailed here. […] At the end of the perfusion period a CSF sample was taken from the cisterna magna, the animal was decapitated, the brain removed and samples taken under a Leica S4E L2 stereomicroscope (Leica; Buckinghamshire, UK). […] The circumventricular organs (CVOs) including the choroid plexus, pituitary gland and pineal gland were also sampled. Brain samples were also taken for capillary depletion analysis.
It is specifically used in brain samples (including brain homogenate and brain supernatant) to measure the vascular space at all perfusion time points. At later time points, in particular, it may also represent the capillary endothelial cell volume and/ or diffusion across the brain capillary wall and into the brain interstitial fluid. In the pellet samples it will measure extracellular fluid and may also represent capillary endothelial cell volume. […] It may also represent any accumulation into the cells of the choroid plexus.

[3] = In situ brain/choroid plexus perfusion with capillary depletion: CNS uptake of [3H]-arginine in absence and presence of transporter inhibitors; type: in vivo, adult male BALB/c mice; design: Difference (Arginine - Sucrose): unit not given here; details: male, BALB/c, mouse, 10 mins, 5ml/min, per mouse
Protocol: as §1
(§2) Both the physiological capillary depletion buffer and dextran solution were maintained at 4 °C to halt any cell metabolism and transport processes, and to reduce any cellular or protein damage due to heat generated from the homogenisation process. The whole brain homogenate was then taken for dextran density centrifugation (5,400 x g) and 4 °C to produce an endothelial cell-enriched pellet and supernatant containing brain parenchyma.
(§3) The transporter proteins these inhibitors target are listed in S1 Table in S1 File.
(§4) % change=RTissue−RInhibition /RTissue× 100 (2)

[4] = tested on: blood-brain and blood-CSF barriers; experiment: as above; type: in vivo, adult male BALB/c mice; design: Difference (Arginine - Sucrose): unit not given here; details: for uptake of [3H]-arginine: [14C]-sucrose corrected; for Arginine, tissue/plasma ratio / Difference (Arginine - Sucrose): 10 mins, 5ml/min, per mouse
Protocol: as §1, §2, §3, §4

[5] = CONTROL, 10 mins, 5ml/min, single mice

CN(C)C(N)=NCCC[C@H](N)C(=O)O.Cl.Cl [unlabelled ADMA, N^G,N^G-dimethylarginine dihydrochloride]
decrease of [3H]-ADMA uptake ([1]; 500 μM unlabelled ADMA, frontal cortex): 79.9% | effect on uptake of [3H]-ADMA (62.5 nM) ([1]; 0.5, 3.0, 10, 100 and 500μM un-labelled ADMA, all brain regions): significantly self-inhibited | Difference ([3H] ADMA minus [14C] Sucrose), hippocampus [1, 5]: 0.1991 and 0.2866 and 0.2044 and 0.2062 | Difference ([3H] ADMA minus [14C] Sucrose), hypothalamus [1, 5]: 0.21 and 0.3614 and 0.2746 and 0.3021 | Difference ([3H] ADMA minus [14C] Sucrose), occipital cortex [1, 5]: 0.1943 and 0.2753 and 0.1841 and 0.2419 and 0.2303 | Difference ([3H] ADMA minus [14C] Sucrose), thalamus [1, 5]: 0.1695 and 0.2656 and 0.1763 and 0.2233 and 0.2154 | [3H] ADMA, hippocampus [1, 5]: 0.2134 and 0.305 and 0.2049 and 0.2208 and 0.2239 | [3H] ADMA, hypothalamus [1, 5]: 0.2341 and 0.3969 and 0.298 and 0.3627 and 0.4134 | [3H] ADMA, occipital cortex [1, 5]: 0.2132 and 0.2962 and 0.2074 and 0.2625 and 0.2565 | [3H] ADMA, supernatant [1, 5]: 0.1192 and 0.1611 and 0.1028 and 0.139 and 0.1685 | [3H] ADMA, thalamus [1, 5]: 0.1804 and 0.2881 and 0.1916 and 0.2507 and 0.2348 | inhibition of NO production (NO production; normal ADMA concentrations within cells): 10% | inhibition of NO production (NO production; plasma ADMA concentrations higher than normal): 70% | Km (CAT-1): 183 ± 21 µM

OC[C@H]1O[C@@](CO)(O[C@H]2O[C@H](CO)[C@@H](O)[C@H](O)[C@H]2O)[C@@H](O)[C@@H]1O [[^14C]-sucrose, sucrose]
distribution into capillary endothelial cells, times lower than into choroid plexus [2]: 31.4 times

N=C(N)NCCC[C@H](N)C(=O)O [[^3H]-arginine, L-arginine]
Kp at 10 min ([3]; cerebellum, Arginine, tissue/plasma ratio, cerebellum, + 4mM BCH): 0.607 | Kp at 10 min ([3]; cerebellum, Difference (Arginine - Sucrose), cerebellum, + 4mM BCH): 0.575 | Kp at 10 min, […] ([3]; cerebellum, with 20 mM L-homoarginine, Arginine, tissue/plasma ratio, cerebellum, + 20mM L-Homoarginine): 0.0312 | Kp at 10 min, […] ([3]; choroid plexus, Arginine, tissue/plasma ratio, choroid plexus, + 4mM BCH): 2.01 | Kp at 10 min ([3]; choroid plexus, Difference (Arginine - Sucrose), choroid plexus, + 4mM BCH): 1.85 | Kp at 10 min ([3]; frontal cortex, Arginine, tissue/plasma ratio, frontal cortex, + 4mM BCH): 0.649 | Kp at 10 min ([3]; frontal cortex, Difference (Arginine - Sucrose), frontal cortex, + 4mM BCH): 0.617 | Kp at 10 min ([3]; frontal cortex, with L-homoarginine 20 mM in the artificial plasma, Arginine, tissue/plasma ratio, frontal cortex, + 20mM L-Homoarginine): 0.0351 | Kp at 10 min ([3]; hippocampus, Arginine, tissue/plasma ratio, hippocampus, + 4mM BCH): 0.477 | Kp at 10 min ([3]; hippocampus, Difference (Arginine - Sucrose), hippocampus, + 4mM BCH): 0.457 | Kp at 10 min ([3]; occipital cortex, Arginine, tissue/plasma ratio, occipital cortex, + 4mM BCH): 0.631 | Kp at 10 min ([3]; occipital cortex, Difference (Arginine - Sucrose), occipital cortex, + 4mM BCH): 0.6 | Kp at 10 min, […] ([3]; occipital cortex, with 20 mM L-homoarginine, Arginine, tissue/plasma ratio, occipital cortex, + 20mM L-Homoarginine): 0.0199 | Kp at 10 min ([3]; whole brain homogenate, Arginine, tissue/plasma ratio, homogenate, + 4mM BCH): 0.353 | Kp at 10 min ([3]; whole brain homogenate, Difference (Arginine - Sucrose), homogenate, + 4mM BCH): 0.332 | Kp at 10 min, […] ([3]; with 20 mM L-homoarginine, Arginine, tissue/plasma ratio, supernatant, + 20mM L-Homoarginine): 0.0216 | uptake into frontal cortex, times higher than into CSF ([4]; 10 minutes): 5.7 times | uptake into pellet, times lower than into choroid plexus ([4]; 10 minutes): 39.5 times | uptake of [3H]-arginine ([4]; CSF, 10 minutes): 9.53 ± 2.41 ml.100g^-1 | uptake of [3H]-arginine ([4]; capillary endothelial cell enriched pellet, 10 minutes): 6.47 ± 1.018 ml.100g^-1 | Arginine, tissue/plasma ratio ([4]; caudate nucleus): 0.6618 and 0.8652 and 0.401 and 0.4938 and 0.3347 and 0.5216 | Difference (Arginine - Sucrose) ([4]; caudate nucleus): 0.6456 and 0.7471 and 0.378 and 0.4593 and 0.3101 and 0.4829 | Arginine, tissue/plasma ratio ([4]; choroid plexus): 3.243 and 3.765 and 2.2598 and 3.422 and 1.518 and 2.959 | Difference (Arginine - Sucrose) ([4]; choroid plexus): 3.028 and 3.467 and 2.014 and 2.791 and 1.394 and 2.658 | uptake of [3H]-arginine ([4]; choroid plexus, 10 minutes): 255.86 ± 30.41 ml.100g^-1 | Arginine, tissue/plasma ratio ([4]; frontal cortex): 0.8204 and 0.8688 and 0.3825 and 0.5285 and 0.3141 and 0.5494 | Difference (Arginine - Sucrose) ([4]; frontal cortex): 0.7931 and 0.8428 and 0.3551 and 0.4902 and 0.2926 and 0.505 | uptake of [3H]-arginine ([4]; frontal cortex, 10 minutes): 54.65 ± 9.21 ml.100g^-1 | Arginine, tissue/plasma ratio ([4]; hippocampus): 0.5129 and 0.6918 and 0.3896 and 0.4547 and 0.2706 and 0.4979 | Difference (Arginine - Sucrose) ([4]; hippocampus): 0.4962 and 0.6689 and 0.3625 and 0.4201 and 0.2493 and 0.4621 | Arginine, tissue/plasma ratio ([4]; hypothalamus): 0.9811 and 1.538 and 0.3381 and 0.6951 and 0.2905 and 0.3696 | Difference (Arginine - Sucrose) ([4]; hypothalamus): 0.9489 and 1.477 and 0.3149 and 0.634 and 0.2579 and 0.3397 | Arginine, tissue/plasma ratio ([4]; occipital cortex): 0.6317 and 0.7248 and 0.327 and 0.4186 and 0.2687 and 0.5347 | Difference (Arginine - Sucrose) ([4]; occipital cortex): 0.6113 and 0.7014 and 0.3051 and 0.3893 and 0.251 and 0.4973 | Difference (Arginine - Sucrose) ([4]; pineal gland): 1.49 and 0.1187 and 0.66 and 1.347 and 0.9026 and 0.5878 | Arginine, tissue/plasma ratio ([4]; pituitary gland): 3.254 and 2.641 and 1.189 and 1.192 and 1.144 and 2.275 | Difference (Arginine - Sucrose) ([4]; pituitary gland): 3.08 and 2.441 and 0.973 and 1.116 and 1.019 and 2.001 | Arginine, tissue/plasma ratio ([4]; thalamus): 0.9502 and 1.029 and 0.4051 and 0.5618 and 0.2525 and 0.5368 | Difference (Arginine - Sucrose) ([4]; thalamus): 0.929 and 0.9992 and 0.362 and 0.5168
